Laboratory results as given in US20050004007A1, “Promotion of adoptosis in cancer cells by co-administration of cyclin dependent kinase inhibitiors and cellular differentiation agents” (priority 2000, published 2005).

Legend:
U937 cells [1] = assay: cell cycle analysis (propidium iodide, flow cytometry); format: cell-based, human; details: 24 h after administration of SAHA, FP or both
Description: Cell Cycle Analysis. Following drug treatment, cells were pelleted by centrifugation at 500 g×6 min, and resuspended in 70% ethanol. The cells were incubated on ice for at least 1 h and resuspended in 1 ml cell cycle buffer (0.38 mM Na-Citrate, 0.5 mg/ml RNase A, and 0.01 mg/ml propidium iodide) at a concentration of 10×10^5 cells/ml, stored in the dark at 4 C until analysis (24 h), using a Becton-Dickinson FACScan flow cytometer and Verity Winlist software (Verity Software, Topsham, Me.).

[2] = test system: U937 myelomonocytic human leukemia cells; assay: percent cell death; format: cell-based; details: 1 μM SAHA, 100 nM FP, 24 hours after administration
[3] = test system: HL-60 promyelocytic leukemia cells; assay: percent cell death; format: cell-based, human; details: SAHA 1 and 1.5 μM alone or with 100 or 150 nM FP
U937/Bcl-2 cells = assay: morphological assessment of apoptosis in Bcl-2 overexpressing cells; format: cell-based, human; details: ara-C 1.0 μM x 6 h
Text: (§1) Cell culture. The myelomonocytic leukemia cell line U937 was derived from a patient with histiocytic lymphoma and was obtained from American Type Culture Collection. The HL-60 cell line was derived from a patient with acute promyelocytic leukemia as previously described [Grant et al. 1992]. U937 and HL-60 cells were maintained in logarithmic growth phase by culturing in suspension in phenol red-free RPMI-1640 (Life Technologies, Inc., Grand Island, N.Y.) and 10% (v/v) fetal calf serum (Hyclone, Logan, Utah), in a humidified atmosphere (95% air/5% CO2) at 37° C. To obtain antisense-expressing cell lines, U937 cells were transfected by electroporation with a pREP4 vector (Invitrogen; Carlsbad, Calif.) or the pREP4 vector containing the p21^WAF1/CIP1 coding region in an antisense orientation as previously described [Wang et al. 1999]. […]
(§2) Morphological assessment of apoptosis. U937 cells were evaluated for apoptosis by morphological assessment of Wright and Giemsa-stained cytospin preparations. At designated times, cells were transferred to slides by cytocentrifugation, fixed, stained, and evaluated under light microscopy for treatment-induced apoptosis. […] Five or more randomly selected fields, encompassing a total≧500 cells/slide, were evaluated to determine the percentage of apoptotic cells for each treatment condition.

[4] = test system: HL-60 human promyelocytic leukemia cells; assay: morphological assessment of apoptosis; format: cell-based; details: 3, 5, or 10 μM ATRA, 80 nM FP
Text: as §1, §2

[5] = test system: p21WAF1/CIP1 full-length promoter; assay: p21WAF1/CIP1 luciferase reporter assay; format: cell-based, human; details: 10 nM PMA, 100 nM FP, 3 and 6 h
Description: (§3) Differentiation studies. Expression of the monocytic differentiation marker, CD11b, was monitored by direct immunofluorescence staining and flow cytometric analysis as previously described [Freemerman et al. 1997]. Following drug treatment, suspension and adherent cells were enumerated by a Coulter Counter and 2×10^6 cells were pelleted by centrifugation. The supernatant was aspirated and the cells were resuspended in 300 μl of ice-cold PBS. Two 100 μl aliquots from each sample were then combined with either phycoerythrin-1 (10 μl) or the IgG control. Samples were incubated for 20 min at 4° C. and diluted in PBS (1 ml). Sample data were collected using a Becton Dickinson FACScan flow cytometer and analyzed with Verity Winlist Software (Verity; Topsham, Me.). […] U937 cells were transfected with a full-length p21^WAF1/CIP1 promoter (base pairs 1-2326) as described by Chinery et al. [Chinery et al. 1997] utilizing electroporation (Eppendorf Multiporator, 620V, 60 μs) in hypoosmolar buffer. […] Lysates (20 μL) were mixed with luciferase assay reagent (100 μL) and monitored for 20 seconds in a luminometer (Monolight 2010). […] The reaction was terminated by addition of NaCO3 and absorbance was measured at 405 nm in a Vmax plate reader (Molecular Devices). Activity was determined by comparison to a standard curve. […]

pRb = assay: Western analysis of underphosphorylated pRb in U937 cells; format: cell-based, human
Description: (§4) Western analysis. Equal quantities of protein (15 μg/condition for MAPK, 40 μg/condition for cytochrome c, or 25 μg/condition) were separated by SDS-PAGE [underphosporylated pRB (7.5%), poly(ADP-ribose)polymerase or PARP (8.0%), p44/p42 MAPK (10%), p21, p27, procaspase 3 (12%), and cytochrome c (15%)] and electroblotted onto nitrocellulose. Western analysis of p44/p42 MAPK protein was performed according to the manufacturer's instructions (New England Biolabs); otherwise, studies were performed as previously described [Wang et al, 1998]. Briefly, U937 cells (5×10^6) were pelleted by centrifugation, resuspended in 50 μl PBS, lysed by the addition of 2× Laemmli buffer and boiled for 5 min. Proteins were quantified with Coomassie protein assay reagent. Blots were blocked in PBS-T/5% milk, washed twice with PBS-T, and incubated overnight at 4° C. with the appropriate primary antibody. The blots were washed with PBS-T and incubated with a horseradish-peroxidase conjugated secondary antibody diluted appropriately in PBS-T/5% mill. Following incubation, blots were developed by enhanced chemiluminescence exposure to Kodak X-OMAT film (Eastman Kodak Co., Rochester, N.Y.) and reprobed with antibodies directed against actin to control for equal loading of protein.
(§5) Alternatively, whole cell-pellets were washed twice in PBS, resuspended in PBS, and lysed by the addition of I volume of loading buffer. Lysates were boiled for 10 min, centrifuged at 12,800 g for 5 min and quantified using Coomassie protein assay reagent (Pierce, Rockfold, Ill.). 25 μg of total proteins per point were separated by SDS-PAGE and electro-blotted to nitrocellulose. The blots were blocked in 5% non-fat milk in PBS-T and probed for 1 h with the appropriate dilution of primary antibody. Blots were washed 3×10 min in PBS-T and then incubated with a 1:2000 dilution of peroxidase-conjugated secondary antibody for 1 h at room temperature. Blots were again washed 3×10 min in PBS-T and then developed by enhanced chemiluminesence. Where indicated, blots were stripped and re-probed with antibodies directed against actin.
(§6) Primary antibodies for both p21^WAF1/CIP1 and p27^KIP1 (Transduction Laboratories, Lexington, Ky.) were used in a 1:1000 dilution; PARP (1:1000; Oncogene Research Products, Cambridge, Mass.); pro-caspase 3 (1:1000; Transduction Laboratories); cytochrome c (1:2000; Pharmingen); bcl-2 (1:2000; DAKO, Denmark); bax (1:1000; Santa Cruz Biotechnology, Inc., Santa Cruz, Calif.); bid (1:1000; Cell Signaling, Beverly, Mass.); XIAP (1:1000; Cell Signaling); Mcl-1 (1:1000; Pharmingen); bak (1:1000; Calbiochem); c-Myc (1:1000; Pharmingen, San Diego, Calif.); actin (1:2000; Sigma Chemicals, St. Louis, Mo.); cyclins-D1, -A and -E (1:1000; Pharmingen); pRb, underP-pRb, pRb-CDK2 and pRb-CDK4 (all 1:1000; Pharmingen); Ac-H3 and Ac-H4 (both 1:1000; Upstate Biotechnology, Lake Placid, N.Y.); E2F-1 (Upstate Biotechnology). Secondary antibodies conjugated to horseradish peroxidase were obtained from Kirkegaard and Perry Laboratories, Inc. (Gaithersburg, Md.). Coomassie protein assay reagent was purchased from Pierce (Rockford, Ill.), and an enhanced chemiluminescence kit was obtained from New England Nuclear (Boston, Mass.). The pan-caspase inhibitor BOC-D-fmk and the caspase 8 inhibitor Z-IETD-fmk were purchased from Enzyme System Products (Livermore, Calif.) All other chemicals or reagents were purchased from Sigma.

U937 cells [6] = assay: plastic adherence (differentiation); format: cell-based, human; details: 10 nM PMA alone or with FP 100 nM
Description: as §3

ERK1/2 = assay: Western analysis of phosphorylated p44/p42 MAPK in U937 cells; format: cell-based, human; details: 10 nM PMA, 100 nM FP, 30 min-6 h
Description: as §4

p27KIP1 = assay: Western analysis of p27KIP1 expression in U937 cells; format: cell-based, human; details: 10 nM PMA, FP 50-100 nM, 24 h
Description: as §4, with “Following incubation, blots were developed by enhanced chemiluminescence exposure to Kodak X-OMAT film (Eastman Kodak Co., Rochester, N.Y.) and reprobed with antibodies directed against actin to control for equal loading of protein.” left out
Alternatively, whole cell-pellets were washed twice in PBS, resuspended in PBS, and lysed by the addition of I volume of loading buffer. Lysates were boiled for 10 min, centrifuged at 12,800 g for 5 min and quantified using Coomassie protein assay reagent (Pierce, Rockfold, Ill.). […]

p21WAF1/CIP1 = assay: Western analysis of p21WAF1/CIP1 expression in U937 cells; format: cell-based, human
Description: as §4, §5, §6

U937 cells [7] = assay: clonogenic survival assay; format: cell-based, human; details: 24-h exposure; 10 nM PMA alone or 10 nM PMA/100 nM FP
Description: Clonogenic survival assays. Clonogenic survival assays assessed the effects of 10 nM PMA, FP (50 or 100 nM) or PMA/FP co-treatments on leukemic cell self-renewal capacity. Cell densities were determined after 24-h drug treatment using a Coulter Counter (Coulter Electronics, Hialeah, Fla.). Cells were pelleted by centrifugation and resuspended in fresh media to achieve a final cell density of 3×10^5/ml. A total of 4500 cells were plated in soft agar cloning medium for each condition as previously described [Powell et al. 1995]. Colonies, defined as groups of≧50 cells, were scored after 12 days of incubation. Clonogenic survival in drug-treated samples was expressed as a percentage relative to untreated controls.

U937 cells [8] = assay: CD11b surface differentiation marker expression (flow cytometry); format: cell-based, human; details: 24 h; 10 nM PMA alone or with 50 nM FP
Description: Differentiation studies. Expression of the monocytic differentiation marker, CD11b, was monitored by direct immunofluorescence staining and flow cytometric analysis as previously described [Freemerman et al. 1997]. Following drug treatment, suspension and adherent cells were enumerated by a Coulter Counter and 2×10^6 cells were pelleted by centrifugation. The supernatant was aspirated and the cells were resuspended in 300 μl of ice-cold PBS. Two 100 μl aliquots from each sample were then combined with either phycoerythrin-1 (10 μl) or the IgG control. Samples were incubated for 20 min at 4° C. and diluted in PBS (1 ml). Sample data were collected using a Becton Dickinson FACScan flow cytometer and analyzed with Verity Winlist Software (Verity; Topsham, Me.). […] U937 cells were transfected with a full-length p21^WAF1/CIP1 promoter (base pairs 1-2326) as described by Chinery et al. [Chinery et al. 1997] utilizing electroporation (Eppendorf Multiporator, 620V, 60 μs) in hypoosmolar buffer. In each experiment, pSV-βgal (Promega), containing the β-galactosidase gene under the control of the constitutively active SV40 promoter and enhancer, was co-transfected with the luciferase reporter at a ratio of 1:5 (w/w) to normalize for transfection efficiency. The cells were incubated overnight in complete media and treated with 10 nM PMA, 100 nM FP, or 10 nM PMA/100 nM FP for 3 or 6 h. At indicated times, cells were washed in serum-free media, resuspended in 0.25M Tris-HCl pH 7.8, lysed by rapid freeze-thaw, centrifuged and the supernatant frozen at −70° C. Lysates (20 μL) were mixed with luciferase assay reagent (100 μL) and monitored for 20 seconds in a luminometer (Monolight 2010). For β-galactosidase activity, lysates (50 μL) were mixed in triplicate with an equal volume of […] assay buffer (2×) in a 96-well plate and incubated overnight. The reaction was terminated by addition of NaCO3 and absorbance was measured at 405 nm in a Vmax plate reader (Molecular Devices). Activity was determined by comparison to a standard curve. […]

In the case of `O=C(CCCCCCC(=O)Nc1ccccc1)NO` [SAHA, suberoylanilide hydroxamic acid], the cell cycle distribution (U937 cells [1]) is reported as “prominent increase in the percentage of cells arresting in G0/G1”, the cell death [2] is reported as “ineffective” and the cell death [3] is reported as “modest levels of cell death”.
`Nc1ccn([C@@H]2O[C@H](CO)[C@@H](O)[C@@H]2O)c(=O)n1` [ara-C, 1-β-D-arabinofuranosylcytosine] was tested, and the “lethal effects in Bcl-2 overexpressing cells” value (U937/Bcl-2 cells) was “significantly protected”.
In the case of `CC1=C(/C=C/C(C)=C/C=C/C(C)=C/C(=O)O)C(C)(C)CCC1` [ATRA, all trans retinoic acid], the “% apoptosis” value [4] is reported as “minimal effect”.
For `CCCCCCCCCCCCCC(=O)O[C@@H]1[C@@H](C)[C@@]2(O)[C@@H](C=C(CO)C[C@]3(O)C(=O)C(C)=C[C@@H]23)[C@@H]2C(C)(C)[C@]12OC(C)=O` [PMA, phorbol 12-myristate 13-acetate], the p21WAF1/CIP1 reporter activity [5] was “markedly increased”, the “time of pRb dephosphorylation” value (pRb; 10 nM PMA alone) was 3 h and the “full-length underphosphorylated pRb” value (pRb; 10 nM PMA, FP 50, 80 or 100 nM, 24 h) was “significant increase”. For the same molecule, the “percentage of cells with plastic adherence” value (U937 cells [6]) was 80%, the “phosphorylation (activation) of ERK1/2” value (ERK1/2) was “increase in phosphorylated ERK1/2” and the p27KIP1 expression (p27KIP1) was “slight increase”. The p21WAF1/CIP1 expression (p21WAF1/CIP1; 10 nM PMA, FP 50-100 nM, 24 h) was “significant increase”, the “time to induction of p21WAF1/CIP1 after drug addition” value (p21WAF1/CIP1; PMA 10 nM) was no more than 1 h and the “clonogenic survival, percentage relative to untreated controls” value (U937 cells [7]) was 15%. The “percentage of cells displaying CD11b expression” value (U937 cells [8]) was 26%.
